Data reported in US10597388B2, “Pyridazinone herbicides” (FMC CORPORATION, priority 2014, dated 2020).

Key:
Assay in all cases: Test C greenhouse herbicide test, pre- and postemergence
Format in all cases: in vivo
[1] = test system: barnyardgrass (Echinochloa crus-galli)
Procedure, shortened: (§1)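 Greenhouse pots; pre-em on seeded loam:sand blend, post-em on 2–18 cm plants (1–4 leaf) in sphagnum peat/vermiculite medium. Formulation: non-phytotoxic solvent + surfactant. Read-out: visual % control (0–100) vs controls at 13–15 d.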

[2] = test system: crabgrass, large (large crabgrass, Digitaria sanguinalis)
Procedure, shortened: as §1

[3] = test system: foxtail, giant (giant foxtail, Setaria faberii)
Procedure, shortened: as §1

[4] = test system: galium (catchweed bedstraw, Galium aparine)
Procedure, shortened: as §1

[5] = test system: johnsongrass (Sorghum halepense)
Procedure, shortened: as §1

[6] = test system: lambsquarters (Chenopodium album)
Procedure, shortened: as §1

[7] = test system: nutsedge, yellow (yellow nutsedge, Cyperus esculentus)
Procedure, shortened: as §1

[8] = test system: oilseed rape (Brassica napus)
Procedure, shortened: as §1

[9] = test system: ragweed (common ragweed, Ambrosia elatior)
Procedure, shortened: as §1

[10] = test system: soybean (Glycine max)
Procedure, shortened: as §1

[11] = test system: waterhemp (common waterhemp, Amaranthus rudis)
Procedure, shortened: as §1

[12] = test system: wheat (winter wheat, Triticum aestivum)
Procedure, shortened: as §1

[13] = Postemergence, 31 g ai/ha, 0 to 100 scale (0 no effect, 100 complete control)
[14] = Postemergence, 125 g ai/ha, scale 0 to 100, 0 is no effect, 100 is complete control
[15] = Postemergence, 250 g ai/ha, scale 0 to 100, 0 no effect, 100 complete control, 13 to 15 d
[16] = Preemergence, 31 g ai/ha, scale 0 to 100, 0 is no effect, 100 is complete control
[17] = Preemergence, 62 g ai/ha, scale 0 to 100, 0 is no effect, 100 is complete control
[18] = Preemergence, 125 g ai/ha, scale 0 to 100, 0 is no effect, 100 is complete control
[19] = Preemergence, 250 g ai/ha, scale 0 to 100, 0 no effect, 100 complete control
[20] = postemergence, 62 g ai/ha, scale 0 to 100, 0 no effect, 100 complete control

CCc1sc2ccc(C)cc2c1-c1c(O)c(C)nn(C)c1=O [Compound 47]
Barnyardgrass plant response rating [1, 13]: 15 | Plant response rating, Barnyardgrass [1, 14]: 85 | Plant response rating, Barnyardgrass [1, 15]: 90 | Plant response rating, Barnyardgrass [1, 16]: 5 | Plant response rating, Barnyardgrass [1, 17]: 20 | Plant response rating, Barnyardgrass [1, 18]: 85 | Barnyardgrass plant response rating [1, 19]: 100 | Barnyardgrass plant response rating [1, 20]: 55 | Crabgrass, Large plant response rating [2, 13]: 20 | Plant response rating, Crabgrass, Large [2, 14]: 40 | Plant response rating, Crabgrass, Large [2, 15]: 35 | Plant response rating, Crabgrass, Large [2, 16]: 0 | Plant response rating, Crabgrass, Large [2, 17]: 30 | Plant response rating, Crabgrass, Large [2, 18]: 60 | Crabgrass, Large plant response rating [2, 19]: 95 | Crabgrass, Large plant response rating [2, 20]: 30 | Foxtail, Giant plant response rating [3, 13]: 50 | Plant response rating, Foxtail, Giant [3, 14]: 75 | Plant response rating, Foxtail, Giant [3, 15]: 85 | Plant response rating, Foxtail, Giant [3, 16]: 15 | Plant response rating, Foxtail, Giant [3, 17]: 50 | Plant response rating, Foxtail, Giant [3, 18]: 85 | Foxtail, Giant plant response rating [3, 19]: 100 | Foxtail, Giant plant response rating [3, 20]: 65 | Galium plant response rating [4, 13]: 80 | Plant response rating, Galium [4, 14]: 90 | Plant response rating, Galium [4, 15]: 90 | Plant response rating, Galium [4, 16]: 90 | Plant response rating, Galium [4, 17]: 95 | Plant response rating, Galium [4, 18]: 98 | Galium plant response rating [4, 19]: 98 | Galium plant response rating [4, 20]: 90 | Johnsongrass plant response rating [5, 13]: 10 | Plant response rating, Johnsongrass [5, 14]: 20 | Plant response rating, Johnsongrass [5, 15]: 25 | Plant response rating, Johnsongrass [5, 16]: 0 | Plant response rating, Johnsongrass [5, 17]: 0 | Plant response rating, Johnsongrass [5, 18]: 0 | Johnsongrass plant response rating [5, 19]: 0 | Johnsongrass plant response rating [5, 20]: 10 | Lambsquarters plant response rating [6, 13]: 85 | Plant response rating, Lambsquarters [6, 14]: 98 | Plant response rating, Lambsquarters [6, 15]: 85 | Plant response rating, Lambsquarters [6, 16]: 100 | Plant response rating, Lambsquarters [6, 17]: 100 | Plant response rating, Lambsquarters [6, 18]: 100 | Lambsquarters plant response rating [6, 19]: 100 | Lambsquarters plant response rating [6, 20]: 85 | Nutsedge, Yellow plant response rating [7, 13]: 40 | Plant response rating, Nutsedge, Yellow [7, 14]: 80 | Plant response rating, Nutsedge, Yellow [7, 15]: 90 | Plant response rating, Nutsedge, Yellow [7, 16]: 35 | Plant response rating, Nutsedge, Yellow [7, 17]: 45 | Plant response rating, Nutsedge, Yellow [7, 18]: 75 | Nutsedge, Yellow plant response rating [7, 19]: 85 | Nutsedge, Yellow plant response rating [7, 20]: 70 | Oilseed Rape plant response rating [8, 13]: 0 | Plant response rating, Oilseed Rape [8, 14]: 5 | Plant response rating, Oilseed Rape [8, 15]: 10 | Plant response rating, Oilseed Rape [8, 16]: 0 | Plant response rating, Oilseed Rape [8, 17]: 0 | Plant response rating, Oilseed Rape [8, 18]: 0 | Oilseed Rape plant response rating [8, 19]: 10 | Oilseed Rape plant response rating [8, 20]: 0 | Ragweed plant response rating [9, 13]: 80 | Plant response rating, Ragweed [9, 14]: 98 | Plant response rating, Ragweed [9, 15]: 100 | Plant response rating, Ragweed [9, 16]: 50 | Plant response rating, Ragweed [9, 17]: 85 | Plant response rating, Ragweed [9, 18]: 98 | Ragweed plant response rating [9, 19]: 100 | Ragweed plant response rating [9, 20]: 98 | Soybean plant response rating [10, 13]: 0 | Plant response rating, Soybean [10, 14]: 10 | Plant response rating, Soybean [10, 15]: 15 | Plant response rating, Soybean [10, 16]: 0 | Plant response rating, Soybean [10, 17]: 0 | Plant response rating, Soybean [10, 18]: 10 | Soybean plant response rating [10, 19]: 30 | Soybean plant response rating [10, 20]: 10 | Waterhemp plant response rating [11, 13]: 90 | Plant response rating, Waterhemp [11, 14]: 100 | Plant response rating, Waterhemp [11, 15]: 100 | Plant response rating, Waterhemp [11, 16]: 100 | Plant response rating, Waterhemp [11, 17]: 98 | Plant response rating, Waterhemp [11, 18]: 100 | Waterhemp plant response rating [11, 19]: 100 | Waterhemp plant response rating [11, 20]: 75 | Wheat plant response rating [12, 13]: 0 | Plant response rating, Wheat [12, 14]: 0 | Plant response rating, Wheat [12, 15]: 0 | Plant response rating, Wheat [12, 16]: 0 | Plant response rating, Wheat [12, 17]: 0 | Plant response rating, Wheat [12, 18]: 0 | Wheat plant response rating [12, 19]: 0 | Wheat plant response rating [12, 20]: 0
